Experimental data published in patent publication US12686668B2, “Leukotriene synthesis inhibitors” (Naegis Pharmaceuticals Inc., priority 2019, dated 2026).

Legend:
[1] = Rat ocular distribution model, retina after topical drop; assay type: in vivo; conditions: Lewis rats, 10 μL topical drop
Method: (§1) Eye drops were prepared by adding compounds at a theoretical concentration of 10 mg/mL to a 2 mL microcentrifuge tube before adding a stir bar and the selected formulation that consisted of (w/v) hydroxypropyl β-cyclodextrin (Trappsol) (20%), hydroxyl propyl methylcellulose (0.5%) and EDTA (1.6 mM) in phosphate buffered saline. Tubes containing compound in eye drop formulation were heated to 60-65° C. and stirred at least 4 hours to overnight. The tubes were removed from the heat bath and centrifuged at 10,000 ref for 5 minutes to clear the solution of any residual drug not in solution. The supernatant was removed from the tubes and one 10 μL sample was removed for HPLC analysis of solubilized by HPLC using an ACE C18 column (4.5 mm×150 mm, 5 m), eluted with acetonitrile/methanol/water mixture with H3PO4, pH 3.5 (50:30:20) with a flow rate of 2.5 mL/min. The solubilized concentration of each compound was calculated by interpolation from a standard curve based on reference standards solubilized in methanol when the assay was validated.
Compounds were applied as a single 10 μL drop to rats and the aqueous humor, and the posterior segment of the eye (vitreous body and retina) were collected from each eye at the time point assigned after the eye was irrigated to remove any residual formulation present. Tissues were collected in pre-weighed collection tubes and the tissue weight was determined for each sample. An internal standard (IS) mixture containing a reference compound at a ratio of 1 μL to 4 mg tissue was added to samples, mixed and then diluted×4.25 in acetonitrile:methanol (9:1). Aqueous humour samples were vortex mixed for 10 s. The vitreous body & retina were vortex mixed 2 times each for 10 s, and further mixed for 6 min on a tabletop shaker at 750 rpm followed by final vortex mixing (10 s). All samples were centrifuged to pellet any particulate matter and the supernatant was transferred to LC vials. A 10 μL sample was then applied to the HPLC during LC/MS/MS analysis. A calibration curve for compounds (0.588-176.471 ng/mL) was prepared in rat plasma to estimate concentrations of compounds in each of the matrices analyzed using the area under curve (AUC) normalized to internal standard AUC for determining response. The assumption was made that 1 mg tissue is equivalent to 1 μL plasma. Concentrations measured in each tissue were then normalized to the amount of drug applied to account for differences in solubilized drug in each formulation. The average concentration and the standard deviation was determined based on “n”=number of eyes assessed, rather than the number of animals. […]

[2] = system: LTC4 production in MC/9 cells; test: MC/9 HPLC assay, inhibition of LTC4 production; assay type: cell-based; conditions: Mus musculus; for inhibition at 3 µM: MC9, 3 μM, A23187 stimulated
In short: (§2)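 MC/9 cells (3×10^6 in HBSS) pre-incubated 30 min with compound, then stimulated 20 min at room temperature with 1 μM A23187. After methanol quench and C18 solid-phase extraction, LTB4 and LTC4 quantified by HPLC against reference standards; inhibition relative to control samples.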

[3] = Solubilized concentration of compound in eye drop formulation (HPLC); assay type: physicochemical; conditions: eye drop formulation: 20% hydroxypropyl β-cyclodextrin, 0.5% HPMC, 1.6 mM EDTA in PBS
Method: as §1
In Table 6, the data from distribution studies performed in Lewis rats show the concentration of each compound present in the retina 0.5 hr after the administration of a 10 μL drop of each topical formation is provided. Compounds were paired and individual formulations mixed at a ratio to make a mixture that contained ~2.5 mg/mL of each compound.

[4] = system: LTB4 production in MC/9 cells; test: MC/9 HPLC assay, inhibition of LTB4 production; assay type: cell-based; conditions: Mus musculus, MC9, Table 2 column 4, no concentration in head (1 μM according to b732), read-out: % Inhibition LTB4
In short: as §2

[5] = system: endogenous leukotriene production; conditions: estimated; cited from earlier work

| Concentration of compound in formulation [3] [µg/mL] | SMILES | Concentration of compound in retina 0.5 hr after administration per mg compound applied (Avg ± SD) n = 2 [1] | inhibition at 3 µM [2] [%] | inhibition at 1 µM [4] [%] | inhibition at 1 µM ([2]; MC9, Table 2 column 3, no concentration in head (1 μM according to b732), read-out: % Inhibition LTC4) [%] | Inhibition of endogenous leukotriene production [5] |
| --- | --- | --- | --- | --- | --- | --- |
| 1650 | CCC(C)(O)CCc1ccc(Oc2nc3c(SC)cccc3s2)c(OC)c1 (stereo not drawn) [Compound 191, 1-(3-methoxy-4-{[4-(methylsulfanyl)-1,3-benzothiazol-2-yl]oxy}phenyl)pentan-3-methyl-3-ol] | 4872 ± 1672 ng/mL per mg compound applied | > 90 |  |  |  |
| 2530 | CCC(O)CCc1ccc(Oc2nc3c(SC)cccc3s2)c(OC)c1 (stereo not drawn) [Compound 193, 1-(3-methoxy-4-{[4-(methylsulfanyl)-1,3-benzothiazol-2-yl]oxy}phenyl)pentan-3-ol] | 15690 ± 9863 ng/mL per mg compound applied | 70 to 90 | > 90 | > 90 |  |
| 3640 | CCC(O)(CCc1ccc(Oc2nc3c(SC)cccc3s2)cc1)C(F)(F)F (stereo not drawn) [Compound 195, 1-(4-{[4-(methylsulfanyl)-1,3-benzothiazol-2-yl]oxy}phenyl)-3-(trifluoromethyl)pentan-3-ol] | 3343 ± 2.4 ng/mL per mg compound applied | > 90 |  |  |  |
|  | CC(c1cc2ccccc2s1)N(O)C(N)=O (stereo not drawn) [Zileuton] |  |  |  |  | 26-86% |
